Results reported in patent EP0353827A2, “New immunosuppressant-producing culture” (MERCK & CO. INC., priority 1988, dated 1990).

Tested on: mouse T lymphocytes stimulated with the combination of ionomycin plus PMA
Assay: T-cell proliferation assay (ionomycin plus PMA induced T-cell stimulation, tritiated thymidine uptake)
Format: cell-based
Settings: for immunosuppressive activity, inhibition of T-cell activation: qualitative statement
Text: The principle of this assay is to measure the proliferation of mouse T lymphocytes stimulated with the combination of ionomycin plus PMA. A positive sample in this assay will inhibit T-cell proliferation, as indicated by reduced tritiated thymidine uptake.
Spleens from C57B1/6 mice were taken under sterile conditions and gently dissociated in ice-cold RPMI 1640 culture medium (GIBCO, Grand Island, N.Y.) supplemented with 10% heat-inactivated fetal calf serum (GIBCO). Cells were pelleted by centrifugation at 1500 rpm for 8 minutes. Contaminating red cells were removed by treating the pellet with ammonium chloride lysing buffer (GIBCO) for 2 minutes at 4°C. Cold medium was added and cells were again centrifuged at 1500 rpm for 8 minutes. T lymphocytes were then isolated by separation of the cell suspension on nylon wool columns as follows: Nylon wool columns were prepared by packing approximately 4 grams of washed and dried nylon wool into 20 ml plastic syringes. The columns were sterilized by autoclaving at 250°F for 30 minutes. Nylon wool columns were wetted with warm (37°C) culture medium and rinsed with the same medium. Washed spleen cells resuspended in warm medium were slowly applied to the nylon wool. The columns were then incubated in an upright position at 37°C for 1 hour. Non-adherent T lymphocytes were eluted from the columns with warm culture medium and the cell suspensions were spun as above.
Purified T lymphocytes were resuspended at 2.5 x 10⁵ cells/ml in complete culture medium composed of RPMI 1640 medium with 10% heat-inactivated fetal calf serum, 100 mM glutamine, 1 mM sodium pyruvate, 2 x 10⁻⁵ M 2-mercaptoethanol and 50 µg/ml gentamycin. Ionomycin was added at 250 ng/ml and PMA at 10 ng/ml. The cell suspension was immediately distributed into 96 well flat-bottom microculture plates (Costar) at 200 µl/well. […] L-679,934 was used as a standard. The culture plates were then incubated at 37°C in a humidified atmosphere of 5% CO₂-95% air for 44 hours. The proliferation of T lymphocytes was assessed by measurement of tritiated thymidine incorporation. After 44 hours of culturing, the cells were pulse-labelled with 2 µCi/well of tritiated thymidine (NEN, Cambridge, MA). After another 4 hours of incubation, cultures were harvested on glass fiber filters using a multiple sample harvester. Radioactivity of filter discs corresponding to individual wells was measured by standard liquid scintillation counting methods (Betacounter). Mean counts per minute of replicate wells were calculated and the results expressed as percent inhibition of tritiated thymidine uptake (proliferation) as follows: [formula]
Purified T lymphocytes were resuspended at 2.5 x 10⁵ cells/ml in complete culture medium composed of RPMI 1640 medium with 10% heat-inactivated fetal calf serum, 100 mM glutamine, 1 mM sodium pyruvate, 2 x 10⁻⁵ M 2-mercaptoethanol and 50 µg/ml gentamycin. Ionomycin was added at 250 ng/ml and PMA at 10 ng/ml. The cell suspension was immediately distributed into 96 well flat-bottom microculture plates (Costar) at 200 µl/well. […] L-679,934 was used as a standard. The culture plates were then incubated at 37°C in a humidified atmosphere of 5% CO₂-95% air for 44 hours. The proliferation of T lymphocytes was assessed by measurement of tritiated thymidine incorporation. After 44 hours of culturing, the cells were pulse-labelled with 2 µCi/well of tritiated thymidine (NEN, Cambridge, MA). After another 4 hours of incubation, cultures were harvested on glass fiber filters using a multiple sample harvester.

SMILES: CC[C@@H]1/C=C(\C)C[C@H](C)C[C@H](OC)[C@H]2O[C@@](O)(C(=O)C(=O)N3CCCC[C@H]3C(=O)O[C@H](/C(C)=C/[C@@H]3CC[C@@H](O)[C@H](O)C3)[C@H](C)[C@@H](O)CC1=O)[C@H](C)C[C@@H]2OC [demethimmunomycin, 31-desmethoxy-31-hydroxy-L-683,590]
- % Inhibition (0.6 ng/ml, ³H-thymidine pulse 4 hours, harvest at 48 hours): 0%
- % Inhibition (0.9 ng/ml, ³H-thymidine pulse 4 hours, harvest at 48 hours): 9.0%
- % Inhibition (1.3 ng/ml, ³H-thymidine pulse 4 hours, harvest at 48 hours): 38.2%
- % Inhibition (1.9 ng/ml, ³H-thymidine pulse 4 hours, harvest at 48 hours): 72.1%
- % Inhibition (2.9 ng/ml, ³H-thymidine pulse 4 hours, harvest at 48 hours): 86.3%
- % Inhibition (4.4 ng/ml, ³H-thymidine pulse 4 hours, harvest at 48 hours): 91.9%
- % Inhibition (6.6 ng/ml, ³H-thymidine pulse 4 hours, harvest at 48 hours): 97.9%
- % Inhibition (10 ng/ml, ³H-thymidine pulse 4 hours, harvest at 48 hours): 98.6%
- immunosuppressive activity, inhibition of T-cell activation: positive inhibition of T-cell activation

SMILES: C=CC[C@@H]1/C=C(\C)C[C@H](C)C[C@H](OC)[C@H]2O[C@@](O)(C(=O)C(=O)N3CCCC[C@H]3C(=O)O[C@H](/C(C)=C/[C@@H]3CC[C@@H](O)[C@H](OC)C3)[C@H](C)[C@@H](O)CC1=O)[C@H](C)C[C@@H]2OC [L-679,934, reference compound]
- inhibition at 0.01 µg/mL (Mus musculus, T-lymphocyte, 10 ng/ml, ³H-thymidine pulse 4 hours, harvest at 48 hours): 99%

SMILES: C=CC[C@@H]1/C=C(\C)C[C@H](C)C[C@H](OC)[C@H]2O[C@@](O)(C(=O)C(=O)N3CCCC[C@H]3C(=O)O[C@H](/C(C)=C/[C@@H]3CC[C@@H](O)[C@H](O)C3)[C@H](C)[C@@H](O)CC1=O)[C@H](C)C[C@@H]2OC [demethomycin, 31-desmethoxy-31-hydroxy-L-679,934]
- % Inhibition (0.29 ng/ml, ³H-thymidine pulse 4 hours, harvest at 48 hours): 0%
- % Inhibition (0.44 ng/ml, ³H-thymidine pulse 4 hours, harvest at 48 hours): 0%
- % Inhibition (0.66 ng/ml, ³H-thymidine pulse 4 hours, harvest at 48 hours): 36.8%
- % Inhibition (0.99 ng/ml, ³H-thymidine pulse 4 hours, harvest at 48 hours): 67.1%
- % Inhibition (1.5 ng/ml, ³H-thymidine pulse 4 hours, harvest at 48 hours): 80.5%
- % Inhibition (2.2 ng/ml, ³H-thymidine pulse 4 hours, harvest at 48 hours): 92.9%
- % Inhibition (3.3 ng/ml, ³H-thymidine pulse 4 hours, harvest at 48 hours): 97.2%
- % Inhibition (5 ng/ml, ³H-thymidine pulse 4 hours, harvest at 48 hours): 98.1%
- immunosuppressive activity, inhibition of T-cell activation: positive inhibition of T-cell activation
